Source: patent EP0538469A1, “SULFONANILIDE DERIVATIVE AND MEDICINE” (NIPPON SHINYAKU COMPANY, LIMITED, priority 1990, dated 1991)
Read-outs that look alike come from different tables or passages of the source. Marks after values point to notes of the source that are not given here. One block for each compound: values may come before it.

Legend:
[1] = test system: rats (SD strain, male); experiment: Acute toxicity, oral, rats; assay type: in vivo; settings: observed two weeks
Method: (§1) Numbers of mice (ddY-strain, male, 6-8 weeks age) and rats (SD strain, male, 6-7 weeks age) in each group were 4 and 6, respectively.
(§2) The drug to be tested was orally administered at the dose of 10 ml/kg using an oral probe to the animals which were fasted since one day before (for 16-18 hours). After giving the drug, the animals were returned to the state where both feed and water were available and the general symptom and the dead cases, if any, were checked for two weeks. The drug was suspended in physiological saline solution containing 0.5% of methylcellulose (0.5% MC) and the suspension was given to the animals by oral route.

[2] = Acute toxicity, oral, rats; assay type: in vivo; settings: rat, in vivo, SD rats, read-out: Rats LD₅₀
Method: as §1, §2

[3] = test system: male rabbits; experiment: Action to intra urethral pressure and blood pressure, intravenous administration; assay type: in vivo; settings: i.v.; for Selectivity (B/A): BP(ED30%↑) / IUP(ED150%↑); for ED (30%) / ED (150%): Oryctolagus cuniculus, iv, anesthetized male rabbits; for ED (30%): dose increasing blood pressure to an extent of 30%, read-out: BP(B) [BP(ED30%↑)] (converted); for ED (150%): dose increasing intra urethral pressure to an extent of 150%, read-out: IUP(A) [IUP(ED150%↑)]
Method: (§3) The experiment was conducted using male rabbits of body weight of 1.4-3.1 kg under fasted condition. The animals were fixed at backs under uretrane(1.2g/kg s.c.) anesthesia, abdomen was subjected to a midline incision and bladder was exposed. In order to prevent the urine stored in the bladder on the intra urethral pressure, the urine in the bladder was compulsorily discharged out of the body. After that, a catheter was inserted into both ureters and the urine discharged from kidney was introduced outside.
(§4) The intra urethral pressure(IUP) at the urethra tract of about 0.5-1 cm distance from the neck of the bladder was measured using a microtip transducer transducer equipped with a baloon (filled with physiological saline solution) at the top end. Further, polyethylene tube was inserted into femoral artery to measure the blood pressure (BP).
The drug to be tested was injected into the vein of ear every fifteen minutes and the maximum responses of the increasing action of intra urethral pressure tract and of the increasing action of blood pressure were measured at each dose.

[4] = test system: mice (ddY-strain, male); experiment: Acute toxicity, oral, mice; assay type: in vivo; settings: observed two weeks
Method: as §1, §2

[5] = test system: femoral artery; experiment: Contraction of isolated femoral artery (Magnus vessel, cumulative concentration/response curves); assay type: cell-based, rabbits; settings: Oryctolagus cuniculus, female rabbit femoral artery, contraction
Method: (§5) The experiment was conducted using female rabbits of 2 to 3.5 kg body weight.
(§6) The animals were killed by draining the blood out under anesthetizing with pentobarbital (30 mg/kg, by intravenous injection) and smooth muscle of urethra and femoral artery were excised. Each of the excised samples was placed in a Magnus vessel filled with a modified Krebs solution (at 37°C; under mixed gas) and both smooth muscle of urethra and femoral artery were suspended with 1 g load.
(§7) The drug to be tested was accumulated to contract the samples whereby the concentration/response curves were obtained wherefrom ED₅₀ (M) and pD₂ were calculated and the selectivity to urethra was determined.

[6] = test system: smooth muscle of urethra; experiment: Contraction of isolated smooth muscle of urethra (Magnus vessel, cumulative concentration/response curves); assay type: cell-based, rabbits; settings: for EC50: Oryctolagus cuniculus, female rabbit urethra smooth muscle, contraction
Method: as §5, §6, §7

[7] = test system: male rabbits; experiment: Action to intra urethral pressure and blood pressure, administration to duodenum; assay type: in vivo
Method: as §3, §4
Abdomen right above stomach was subjected to a midline incision and, after that, the drug to be tested suspended in 0.5% methyl cellulose (0.5% MC) was administered at the dose of 0.5ml/kg to the duodenum. […] The above administration to duodenum corresponded to oral administration as the administration into digestive organ in anethetized animals.

[8] = read-out: ED₅₀ Femoral Artery(B)
[9] = read-out: pD₂ Femoral Artery(B)
[10] = 1 mg/kg i.d., 10 min after administration
[11] = 1 mg/kg i.d., 20 min after administration
[12] = 1 mg/kg i.d., 30 min after administration
[13] = 1 mg/kg i.d., 60 min after administration
[14] = 1 mg/kg i.d., 90 min after administration
[15] = 1 mg/kg i.d., 120 min after administration
[16] = 1 mg/kg i.d., 180 min after administration
[17] = 3 mg/kg i.d., 10 min after administration
[18] = 3 mg/kg i.d., 20 min after administration
[19] = 3 mg/kg i.d., 30 min after administration
[20] = 3 mg/kg i.d., 60 min after administration
[21] = 3 mg/kg i.d., 90 min after administration
[22] = 3 mg/kg i.d., 120 min after administration
[23] = 3 mg/kg i.d., 180 min after administration

SMILES: CNCC(O)c1cc(NS(C)(=O)=O)c(F)cc1F.Cl (racemic) [(71A), (±)-2',4'-Difluoro-5'-(1-hydroxy-2-methylaminoethyl)methanesulfonanilide hydrochloride]
Rats Dead/ Total ([1]; 300 mg/kg): 0 / 6
LD50 at 336 h [2]: > 300 mg/kg
Selectivity (B/A) ([3]; hydrochloride): 2.1
ED (30%) [3]: 0.095 mg/kg
ED (150%) [3]: 0.045 mg/kg

SMILES: CS(=O)(=O)Nc1cc(F)cc(C(O)CN)c1.Cl (racemic) [(73A), (±)-3'-(2-Amino-1-hydroxyethyl)-5'-fluoromethanesulfonanilide hydrochloride]
Rats Dead/ Total ([1]; 100 mg/kg): 1 / 6
Rats Dead/ Total ([1]; 300 mg/kg): 5 / 6
LD50 at 336 h [2]: ~200 mg/kg
Selectivity (B/A) ([3]; hydrochloride): 3.0
ED (30%) [3]: 0.081 mg/kg
ED (150%) [3]: 0.027 mg/kg

SMILES: CS(=O)(=O)Nc1cccc([C@@H](O)CN)c1.Cl [(24B), (R)-(-)-3'-(2-Amino-1-hydroxyethyl)-methanesulfonanilide hydrochloride, reference compound]
Mice Dead/ Total ([4]; 1000 mg/kg): 0 / 4
Rats Dead/ Total ([1]; 5 mg/kg): 0 / 6
Rats Dead/ Total ([1]; 10 mg/kg): 2 / 6
Rats Dead/ Total ([1]; 30 mg/kg): 4 / 6
Rats Dead/ Total ([1]; 100 mg/kg): 5 / 6
LD50 at 336 h [2]: 23.2 mg/kg
Selectivity (B/A) ([3]; hydrochloride): 1.0
ED (30%) [3]: 0.019 mg/kg
ED (150%) [3]: 0.019 mg/kg

SMILES: CS(=O)(=O)Nc1ccc(F)c([C@@H](O)CN)c1.O=C(O)C(O)C(O)C(=O)O [(49K), (R)-(-)-3'-(2-Amino-1-hydroxyethyl)-4'-fluoromethanesulfonanilide L-(+)-tartrate]
Mice Dead/ Total ([4]; 1000 mg/kg): 0 / 4
Mice Dead/ Total ([4]; 3000 mg/kg): 0 / 4
Rats Dead/ Total ([1]; 100 mg/kg): 0 / 6
Rats Dead/ Total ([1]; 300 mg/kg): 0 / 6
Rats Dead/ Total ([1]; 500 mg/kg): 2 / 6
Rats Dead/ Total ([1]; 1000 mg/kg): 1 / 6
LD50 at 336 h [2]: > 1000 mg/kg
Selectivity (B/A) [3]: 6.6
ED (30%) [3]: 0.059 mg/kg
ED (150%) [3]: 0.009 mg/kg

SMILES: CNC[C@H](O)c1ccc(F)c(NS(C)(=O)=O)c1 [(61B)]
Rats Dead/ Total ([1]; 3 mg/kg): 0 / 6
Rats Dead/ Total ([1]; 10 mg/kg): 2 / 6
Rats Dead/ Total ([1]; 30 mg/kg): 1 / 6
Rats Dead/ Total ([1]; 100 mg/kg): 5 / 6
Rats Dead/ Total ([1]; 300 mg/kg): 6 / 6
LD50 at 336 h [2]: 36.1 mg/kg

SMILES: CNCC(O)c1cccc(NS(C)(=O)=O)c1 (stereo not shown) [Amidephrine, reference compound]
Mice Dead/ Total ([4]; 1000 mg/kg): 0 / 4
Mice Dead/ Total ([4]; 3000 mg/kg): 3 / 4
Rats Dead/ Total ([1]; 5 mg/kg): 0 / 6
Rats Dead/ Total ([1]; 10 mg/kg): 3 / 6
Rats Dead/ Total ([1]; 20 mg/kg): 4 / 6
Rats Dead/ Total ([1]; 30 mg/kg): 6 / 6
LD50 at 336 h [2]: 12.4 mg/kg
EC50 [5, 8]: 1960 nM
EC50 [5, 9]: 1950 nM
Selectivity (B/A) ([6]; ED₅₀ femoral artery / ED₅₀ urethra): 0.18
EC50 ([6]; read-out: ED₅₀ Urethra(A)): 10800 nM
EC50 ([6]; read-out: pD₂ Urethra(A)): 10700 nM
Change(%) BP [7, 10]: 2.4%
Change(%) BP [7, 11]: -0.1%
Change(%) BP [7, 12]: 2.2%
Change(%) BP [7, 13]: 7.2* %
Change(%) BP [7, 14]: 14.3** %
Change(%) BP [7, 15]: 10.3* %
Change(%) BP [7, 16]: 3.7** %
Change(%) BP [7, 17]: 5.8%
Change(%) BP [7, 18]: 3.7%
Change(%) BP [7, 19]: 4.1%
Change(%) BP [7, 20]: 20.7** %
Change(%) BP [7, 21]: 34.4** %
Change(%) BP [7, 22]: 39.1** %
Change(%) BP [7, 23]: 31.1** %
Change(%) IUP [7, 10]: 0.7%
Change(%) IUP [7, 11]: 0.6%
Change(%) IUP [7, 12]: 8.3%
Change(%) IUP [7, 13]: 47.6** %
Change(%) IUP [7, 14]: 56.8** %
Change(%) IUP [7, 15]: 46.1* %
Change(%) IUP [7, 16]: 32.1%
Change(%) IUP [7, 17]: -4.5%
Change(%) IUP [7, 18]: 15.9%
Change(%) IUP [7, 19]: 47.1** %
Change(%) IUP [7, 20]: 108.5** %
Change(%) IUP [7, 21]: 107.8** %
Change(%) IUP [7, 22]: 92.7** %
Change(%) IUP [7, 23]: 92.2** %

EC50 [5, 8]: 480 nM
EC50 [5, 9]: 479 nM
EC50 ([6]; read-out: ED₅₀ Urethra(A)): 3750 nM
EC50 ([6]; read-out: pD₂ Urethra(A)): 3720 nM
SMILES: CNC[C@H](O)c1cccc(O)c1 [Phenylephrine]
ED (30%) [3]: 0.019 mg/kg
ED (150%) [3]: 0.037 mg/kg
